Literature values, collected in patent JP2007126392A, “タンパク質のリフォールディング剤” (Sanyo Chemical Industries Ltd, priority 2005, dated 2007).

Conditions: first acid dissociation constant (pKa1) where several protons dissociate

For O[Si](O)(O)O [ケイ酸], the pKa is listed as 9.86.
